Assay results published in the supplement of paper PMC10307832.

What was measured:
Test in all cases: relative viability (nuclei count vs DMSO), 5 days (fraction); higher = more cells survive
[1] = compound: C#Cc1cccc(Nc2ncnc3cc(OC)c(OCCCCCCC(=O)NO)cc23)c1 [CUDC-101] + COc1cc2c(Oc3ccc(NC(=O)C4(C(=O)Nc5ccc(F)cc5)CC4)cc3F)ccnc2cc1OCCCN1CCOCC1 [Foretinib] (partner 0.25 µM)
Outline: (§1)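 Cells from lung cancer lines were seeded into 1536-well plates and, one day later, dosed by pin tool. Treatments were either a single drug or a fixed dose of an anchor drug with five library-drug doses (not always all listed) in √10 steps. After 5 days, nuclei were stained in a one-step fixation (final 0.05% Triton X-100, 1% formaldehyde, 1 ug/ml Hoechst) and counted on 4× images, and relative viability is the treated-to-vehicle nuclei ratio, as the median of duplicate plates.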

[2] = compound: C#Cc1cccc(Nc2ncnc3cc(OC)c(OCCCCCCC(=O)NO)cc23)c1 [CUDC-101] + COc1cccc2cc(-c3nc([C@H]4CC[C@H](C(=O)O)CC4)n4ncnc(N)c34)[nH]c12 [OSI-027] (partner 0.5 µM)
Outline: as §1

[3] = compound: C#Cc1cccc(Nc2ncnc3cc(OC)c(OCCCCCCC(=O)NO)cc23)c1 [CUDC-101] + Cc1cc(Nc2cc(N3CCN(C)CC3)nc(Sc3ccc(NC(=O)C4CC4)cc3)n2)n[nH]1 [Tozasertib] (partner 0.1 µM)
Outline: as §1

[4] = compound: COc1cc2/c(=N/c3ccc(Br)cc3F)nc[nH]c2cc1OCC1CCN(C)CC1 [Vandetanib] + O=C(c1cc(Cc2n[nH]c(=O)c3ccccc23)ccc1F)N1CCN(C(=O)C2CC2)CC1 [Olaparib] (partner 8 µM)
Outline: as §1

Cell Line | relative viability ([1]; first compound 0.01 µM) | relative viability ([1]; first compound 0.03162 µM) | relative viability ([1]; first compound 0.1 µM) | relative viability ([1]; first compound 0.3162 µM) | relative viability ([1]; first compound 1 µM) | relative viability ([2]; first compound 0.01 µM) | relative viability ([2]; first compound 0.03162 µM) | relative viability ([2]; first compound 0.1 µM) | relative viability ([2]; first compound 0.3162 µM) | relative viability ([2]; first compound 1 µM) | relative viability ([3]; first compound 0.01 µM) | relative viability ([3]; first compound 0.03162 µM) | relative viability ([3]; first compound 0.1 µM) | relative viability ([3]; first compound 0.3162 µM) | relative viability ([3]; first compound 1 µM) | relative viability ([4]; first compound 0.02 µM) | relative viability ([4]; first compound 0.06325 µM) | relative viability ([4]; first compound 0.2 µM) | relative viability ([4]; first compound 0.6325 µM) | relative viability ([4]; first compound 2 µM)
NCI-H520 | 0.961 | 0.746 | 0.804 | 0.752 | 0.509 | 0.218 | 0.281 | 0.327 | 0.256 | 0.191 | 0.443 | 0.434 | 0.449 | 0.401 | 0.304 | 0.299 | 0.343 | 0.379 | 0.35 | 0.324
NCI-H2342 | 0.995 | 1.02 | 1.03 | 1.08 | 0.946 | 0.579 | 0.607 | 0.59 | 0.673 | 0.725 | 0.592 | 0.55 | 0.474 | 0.437 | 0.453 | 0.482 | 0.41 | 0.477 | 0.415 | 0.438
NCI-H358 | 0.815 | 0.565 | 0.759 | 0.675 | 0.179 | 0.834 | 0.893 | 0.909 | 0.884 | 0.315 | 0.103 | 0.117 | 0.127 | 0.101 | 0.114 | 0.552 | 0.527 | 0.646 | 0.472 | 0.319
HOP-62 | 1.08 | 1.08 | 1.1 | 1.14 | 0.713 | 0.862 | 0.842 | 0.896 | 0.924 | 0.567 | 0.343 | 0.379 | 0.399 | 0.405 | 0.321 | 0.51 | 0.397 | 0.265 | 0.373 | 0.447
